Experimental data: US20240287124A1, “PRODRUGS OF 4'-SUBSTITUTED NUCLEOSIDE REVERSE TRANSCRIPTASE INHIBITORS” (Merck Sharp & Dohme LLC, priority 2023, published 2024)
Values after ≈ are worked out from the molar mass of the structure shown.

Legend:
[1] = system: HIV-1 wild-type (R8) virus; assay: Viral KINetics in Green cells (VIKING) assay, HIV-1 replication in MT4-GFP reporter cells; format: cell-based; details: Human immunodeficiency virus 1, 10% normal human serum, MT4-GFP cells, HIV-1 wild-type (R8); read-out: Viking (10% NHS), IC50
Summary of the method: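 MT4-GFP cells infected overnight with HIV-1 R8 at MOI ~0.01, then added to compound plates in RPMI with 10% normal human serum; 10-point 3-fold dilutions (typically 4 μM-0.2 nM). Green cells counted at ~48 h and 72 h; reproductive ratio (72 h/48 h) gave % inhibition, IC50 by 4-parameter fit.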

[2] = Aqueous solubility in PBS, pH 7.4; format: physicochemical; details: phosphate buffered saline, pH 7.4, aqueous buffer, thermodynamic from solid, pH 7.4 phosphate buffered saline, 24 hours, amorphous or crystalline material; read-out: Aqu. Solubility
Protocol: Aqueous solubility of the compounds was determined by suspending excess solid (typically 0.3-0.5 mg) in PBS, pH 7.4, at a concentration of 0.5 mg/mL. The suspension was vortexed for 10-30 seconds to wet the material and stirred at 600 rpm for 24 hours. For analysis by UPLC, 150 μL aliquot sample was transferred into a […] PVDF spin filter and centrifuged at 14,000 rpm for 5 minutes. 100 μL of the filtrate was diluted with 100 μL 1:1 Acetonitrile (ACN):H2O. The resultant samples were analyzed using UPLC and quantified against a standard curve of the compound of interest dissolved in 1:1 ACN:H2O. The retains of the solids were checked by XRPD and PLM to determine if the phase of the material was crystalline or amorphous.

Row | SMILES | solubility at 24 h [2] [µg/mL] | IC50 [1] [nM]
1 | C#C[C@]1(COC(=O)Cc2ccc(Cl)cc2)O[C@@H](n2ccc3c(N)nc(Cl)nc32)C[C@@H]1OC(=O)Cc1ccc(Cl)cc1 [Example 34, (2R,3S,5R)-5-(4-amino-2-chloro-7H-pyrrolo[2,3-d]pyrimidin-7-yl)-2-((2-(4-chlorophenyl)acetoxy)methyl)-2-ethynyltetrahydrofuran-3-yl 2-(4-chlorophenyl)acetate] | < 1 | 6.1
2 | C#C[C@]1(COC(=O)OCCC23CC4CC(CC(C4)C2)C3)O[C@@H](n2ccc3c(N)nc(Cl)nc32)C[C@@H]1O [Example 35, 2-(adamantan-1-yl)ethyl (((2R,3S,5R)-5-(4-amino-2-chloro-7H-pyrrolo[2,3-d]pyrimidin-7-yl)-2-ethynyl-3-hydroxytetrahydrofuran-2-yl)methyl) carbonate] | < 1 | 6.2
3 | C#C[C@]1(CO)O[C@@H](n2ccc3c(N)nc(Cl)nc32)C[C@@H]1OC(=O)OCCC12CC3CC(CC(C3)C1)C2 [Example 36, 2-(adamantan-1-yl)ethyl ((2R,3S,5R)-5-(4-amino-2-chloro-7H-pyrrolo[2,3-d]pyrimidin-7-yl)-2-ethynyl-2-(hydroxymethyl)tetrahydrofuran-3-yl) carbonate] | < 1 | 5.5
4 | C#C[C@]1(CO)O[C@@H](n2ccc3c(N)nc(Cl)nc32)C[C@@H]1OC(=O)OCCCCCCCCC [Example 38, (2R,3S,5R)-5-(4-amino-2-chloro-7H-pyrrolo[2,3-d]pyrimidin-7-yl)-2-ethynyl-2-(hydroxymethyl)tetrahydrofuran-3-yl nonyl carbonate] | < 1 | 8
5 | C#C[C@]1(COC(=O)OCCCCCCCC)O[C@@H](n2ccc3c(N)nc(Cl)nc32)C[C@@H]1O [Example 39, ((2R,3S,5R)-5-(4-amino-2-chloro-7H-pyrrolo[2,3-d]pyrimidin-7-yl)-2-ethynyl-3-hydroxytetrahydrofuran-2-yl)methyl octyl carbonate] | < 1 | 3
6 | C#C[C@]1(COC(=O)CCCCCCCCC)O[C@@H](n2ccc3c(N)nc(Cl)nc32)C[C@@H]1OC(=O)CC [Example 47, ((2R,3S,5R)-5-(4-amino-2-chloro-7H-pyrrolo[2,3-d]pyrimidin-7-yl)-2-ethynyl-3-(propionyloxy)tetrahydrofuran-2-yl)methyl decanoate] | < 1 | 34
7 | C#C[C@]1(COC(=O)CCCCCCCCC)O[C@@H](n2ccc3c(N)nc(Cl)nc32)C[C@@H]1OC(C)=O [Example 48, ((2R,3S,5R)-3-acetoxy-5-(4-amino-2-chloro-7H-pyrrolo[2,3-d]pyrimidin-7-yl)-2-ethynyltetrahydrofuran-2-yl)methyl decanoate] | < 1 | 35
8 | C#C[C@]1(CO)O[C@@H](n2ccc3c(N)nc(Cl)nc32)C[C@@H]1OC(=O)C(CCC)CCC [Example 52, (2R,3S,5R)-5-(4-amino-2-chloro-7H-pyrrolo[2,3-d]pyrimidin-7-yl)-2-ethynyl-2-(hydroxymethyl)tetrahydrofuran-3-yl 2-propylpentanoate] | 2.4 (≈ 5.52 µM) | 337
9 | C#C[C@]1(COC(=O)OCc2oc(=O)oc2C)O[C@@H](n2ccc3c(N)nc(Cl)nc32)C[C@@H]1OC(=O)OCc1oc(=O)oc1C [Example 53, ((2R,3S,5R)-5-(4-amino-2-chloro-7H-pyrrolo[2,3-d]pyrimidin-7-yl)-2-ethynyl-3-((((5-methyl-2-oxo-1,3-dioxol-4-yl)methoxy)carbonyl)oxy)tetrahydrofuran-2-yl)methyl ((5-methyl-2-oxo-1,3-dioxol-4-yl)methyl) carbonate] | < 1 | 1.7
10 | C#C[C@]1(CO)O[C@@H](n2ccc3c(N)nc(Cl)nc32)C[C@@H]1OC(=O)CCCCCCCC [Example 55, (2R,3S,5R)-5-(4-amino-2-chloro-7H-pyrrolo[2,3-d]pyrimidin-7-yl)-2-ethynyl-2-(hydroxymethyl)tetrahydrofuran-3-yl nonanoate] | < 1 | 2.2
11 | C#C[C@]1(CO)O[C@@H](n2ccc3c(N)nc(Cl)nc32)C[C@@H]1OC(=O)OCc1oc(=O)oc1C [Example 56, (2R,3S,5R)-5-(4-amino-2-chloro-7H-pyrrolo[2,3-d]pyrimidin-7-yl)-2-ethynyl-2-(hydroxymethyl)tetrahydrofuran-3-yl((5-methyl-2-oxo-1,3-dioxol-4-yl)methyl) carbonate] | 122 (≈ 262 µM) | 2.3
12 | C#C[C@]1(CO)O[C@@H](n2ccc3c(N)nc(Cl)nc32)C[C@@H]1OC(=O)CCCCCC [Example 58, (2R,3S,5R)-5-(4-amino-2-chloro-7H-pyrrolo[2,3-d]pyrimidin-7-yl)-2-ethynyl-2-(hydroxymethyl)tetrahydrofuran-3-yl heptanoate] | < 1 | 1.9
13 | C#C[C@]1(CO)O[C@@H](n2ccc3c(N)nc(Cl)nc32)C[C@@H]1OC(=O)CCCCC [Example 59, (2R,3S,5R)-5-(4-amino-2-chloro-7H-pyrrolo[2,3-d]pyrimidin-7-yl)-2-ethynyl-2-(hydroxymethyl)tetrahydrofuran-3-yl hexanoate] | 16 (≈ 39.3 µM) | 2.8
14 | C#C[C@]1(CO)O[C@@H](n2ccc3c(N)nc(Cl)nc32)C[C@@H]1OC(=O)OCCCCCC [Example 61, (2R,3S,5R)-5-(4-amino-2-chloro-7H-pyrrolo[2,3-d]pyrimidin-7-yl)-2-ethynyl-2-(hydroxymethyl)tetrahydrofuran-3-yl hexyl carbonate] | < 1 | 4.5
15 | C#C[C@]1(COC(=O)CCC23CC4CC(CC(C4)C2)C3)O[C@@H](n2ccc3c(N)nc(Cl)nc32)C[C@@H]1O [Example 62, ((2R,3S,5R)-5-(4-amino-2-chloro-7H-pyrrolo[2,3-d]pyrimidin-7-yl)-2-ethynyl-3-hydroxytetrahydrofuran-2-yl)methyl 3-(adamantan-1-yl)propanoate] | < 1 | 3.9
16 | C#C[C@]1(CO)O[C@@H](n2ccc3c(N)nc(Cl)nc32)C[C@@H]1OC(=O)CC [Example 65, (2R,3S,5R)-5-(4-amino-2-chloro-7H-pyrrolo[2,3-d]pyrimidin-7-yl)-2-ethynyl-2-(hydroxymethyl)tetrahydrofuran-3-yl propionate] | 224 (≈ 614 µM) | 26

Continued, in another order:

Row | solubility at 24 h [2] [µg/mL] | SMILES | IC50 [1] [nM]
17 | 41 (≈ 88.9 µM) | C#C[C@]1(COC(=O)Cc2ccc(Cl)cc2)O[C@@H](n2ccc3c(N)nc(Cl)nc32)C[C@@H]1O [Example 33, ((2R,3S,5R)-5-(4-amino-2-chloro-7H-pyrrolo[2,3-d]pyrimidin-7-yl)-2-ethynyl-3-hydroxytetrahydrofuran-2-yl)methyl 2-(4-chlorophenyl)acetate] | 2.4
18 | 118 (≈ 265 µM) | C#C[C@]1(COC(=O)Cc2ccc(F)cc2)O[C@@H](n2ccc3c(N)nc(Cl)nc32)C[C@@H]1O [Example 37, ((2R,3S,5R)-5-(4-amino-2-chloro-7H-pyrrolo[2,3-d]pyrimidin-7-yl)-2-ethynyl-3-hydroxytetrahydrofuran-2-yl)methyl 2-(4-fluorophenyl)acetate] | 2.3
19 | 49 (≈ 94.4 µM) | C#C[C@]1(COC(=O)c2ccccn2)O[C@@H](n2ccc3c(N)nc(Cl)nc32)C[C@@H]1OC(=O)c1ccccn1 [Example 49, (2R,3S,5R)-5-(4-amino-2-chloro-7H-pyrrolo[2,3-d]pyrimidin-7-yl)-2-ethynyl-2-((picolinoyloxy)methyl)tetrahydrofuran-3-yl picolinate] | 7.5
20 | 239 (≈ 578 µM) | C#C[C@]1(COC(=O)c2ccccn2)O[C@@H](n2ccc3c(N)nc(Cl)nc32)C[C@@H]1O [Example 50] | 1.6
21 | 309 (≈ 698 µM) | C#C[C@]1(COCOC(=O)c2ccccc2)O[C@@H](n2ccc3c(N)nc(Cl)nc32)C[C@@H]1O [Example 51] | 2.2
22 | 247 (≈ 604 µM) | C#C[C@]1(COCOC(=O)C(C)C)O[C@@H](n2ccc3c(N)nc(Cl)nc32)C[C@@H]1O [Example 54, (((2R,3S,5R)-5-(4-amino-2-chloro-7H-pyrrolo[2,3-d]pyrimidin-7-yl)-2-ethynyl-3-hydroxytetrahydrofuran-2-yl)methoxy)methyl isobutyrate] | 1.5
23 | 5 (≈ 11.5 µM) | C#C[C@]1(COC(=O)CCCCCCC)O[C@@H](n2ccc3c(N)nc(Cl)nc32)C[C@@H]1O [Example 57, ((2R,3S,5R)-5-(4-amino-2-chloro-7H-pyrrolo[2,3-d]pyrimidin-7-yl)-2-ethynyl-3-hydroxytetrahydrofuran-2-yl)methyl octanoate] | 2.6
24 | < 1 | C#C[C@]1(CO)O[C@@H](n2ccc3c(N)nc(Cl)nc32)C[C@@H]1OC(=O)CCCc1ccccc1 [Example 60, (2R,3S,5R)-5-(4-amino-2-chloro-7H-pyrrolo[2,3-d]pyrimidin-7-yl)-2-ethynyl-2-(hydroxymethyl)tetrahydrofuran-3-yl 4-phenylbutanoate] | 3.5
25 | < 1 | C#C[C@]1(CO)O[C@@H](n2ccc3c(N)nc(Cl)nc32)C[C@@H]1OC(=O)OCCc1ccccc1 [Example 64, (2R,3S,5R)-5-(4-amino-2-chloro-7H-pyrrolo[2,3-d]pyrimidin-7-yl)-2-ethynyl-2-(hydroxymethyl)tetrahydrofuran-3-yl phenethyl carbonate] | 4.6
